Results published in patent US20220024882A1, “NOVEL TUMOR ANTIGEN BINDING AGENTS AND USES THEREOF” (ITM Isotopen Technologien München AG, priority 2018, published 2022).

Assays:
[1] = tested on: PSMA-negative PC-3 flu tumor cells; experiment: Cell uptake, PSMA-negative cells; type: cell-based; details: after 4 h
Excerpt: (§1) Cell uptake and internalization of ^177Lu-Ibu-PSMA, ^177Lu-Ibu-Dα-PSMA, ^177Lu-Ibu-Dβ-PSMA, ^177Lu-Ibu-N-PSMA and ^177Lu-Ibu-DAB-PSMA were investigated using PSMA-positive PC-3 PIP and PSMA-negative PC-3 flu tumor cells kindly provided by Prof. Dr. Martin Pomper (John Hopkins Institutions, Baltimore, U.S.; Eiber, M.; Fendler, W. P.; Rowe, S. P.; Calais, J.; Hofman, M. S.; Maurer, T.; Schwarzenboeck, S. M.; Kratowchil, C.; Herrmann, K.; Giesel, F. L. Prostate-specific membrane antigen ligands for imaging and therapy. J Nucl Med 2017, 58, (Suppl 2), 67S-76S). Each radioligand was investigated by the performance of experiments performed 3 times in triplicate with PC-3 PIP tumor cell and once in triplicate with PC-3 flu tumor cells.
(§2) Cell uptake and internalization of ^177Lu-Ibu-sPSMA were investigated using PSMA-positive PC-3 PIP and PSMA-negative PC-3 flu tumor cells kindly provided by Prof. Dr. Martin Pomper (Johns Hopkins University School of Medicine, Baltimore, Md., U.S.A.) (Eiber, et al.; J Nucl Med 2017, 58, (Suppl 2), 67S-76S). ^177Lu-Ibu-sPSMA was investigated by performing experiments 3 times in 6 replicates with PC-3 PIP tumor cells and 3 times in 6 replicates with PC-3 flu tumor cells.

[2] = tested on: PSMA-positive PC-3 PIP tumor cells; experiment: Cell uptake and internalization, PSMA-positive cells; type: cell-based
Excerpt: as §1, §2

[3] = tested on: PC-3 PIP/flu tumor-bearing mice; experiment: Biodistribution study in PC-3 PIP/flu tumor-bearing mice; type: in vivo, athymic nude Balb/c mice; details: for Blood / Bone / Heart / Intestines / Kidneys / Liver / Lung / Muscle / Salivary glands / Spleen / Stomach / Tumor-to-blood / Tumor-to-kidney / Tumor-to-liver: PC-3 PIP/flu tumor-bearing mice; for PC-3 flu Tumor: PSMA-negative tumor xenograft; for PC-3 flu Tumor / PC-3 PIP Tumor: mice; for PC-3 PIP Tumor: PSMA-positive tumor xenograft
Description: In vivo experiments were approved by the local veterinarian department and conducted in accordance with the Swiss law of animal protection. Mice were obtained from Charles River Laboratories, Sulzfeld, Germany, at the age of 5-6 weeks. Female, athymic nude Balb/c mice were subcutaneously inoculated with PSMA-positive PC-3 PIP cells (6×10^6 cells in 100 μL Hank's balanced salt solution (HBSS) with Ca^2+/Mg^2+) on the right shoulder and with PSMA-negative PC-3 flu cells (5×10^6 cells in 100 μL HBSS Ca^2+/Mg^2+) on the left shoulder. Two weeks later, the tumors reached a size of about 80-300 mm^3 suitable for the performance of the biodistribution studies.
Biodistribution studies were performed 12-15 days after PC-3 PIP/flu tumor cell inoculation. […] The radioligands were injected in a lateral tail vein in a volume of 100-200 μL. Mice were euthanized at different time points after injection (p.i.) of the radioligands. Selected tissues and organs were collected, weighed and measured using a γ-counter. The results were decay-corrected and listed as a percentage of the injected activity per gram of tissue mass (% IA/g) (Table 3 and 4).
Mice were obtained from Charles River Laboratories, Sulzfeld, Germany, at the age of 5-6 weeks. Female, athymic nude BALB/c mice were subcutaneously inoculated with PSMA-positive PC-3 PIP cells (6×10^6 cells in 100 μL Hank's balanced salt solution (HBSS)) on the right shoulder and with PSMA-negative PC-3 flu cells (5×10^6 cells in 100 μL HBSS) on the left shoulder. Two weeks later, the tumors reached a size of about 80-300 mm^3 suitable for the performance of the biodistribution and imaging studies.
Biodistribution studies were performed 12-15 days after PC-3 PIP/flu tumor cell inoculation. ^177Lu-Ibu-sPSMA was diluted in 0.9% NaCl containing 0.05% bovine serum albumin (BSA) to prevent adhesion to the vial and syringe material. The radioligand was injected in a lateral tail vein in a volume of 100 μL. Mice were euthanized at different time points after injection (p.i.) of the radioligand. Selected tissues and organs were collected, weighed and measured using a γ-counter. The results were decay-corrected and listed as a percentage of the injected activity per gram of tissue mass (% IA/g) (Table 6, FIG. 18).

In the case of `CC(C)Cc1ccc(C(C)C(=O)NCC[C@H](NC(=O)CN2CCN(CC(=O)O)CCN(CC(=O)O)CCN(CC(=O)O)CC2)C(=O)NCC2CCC(C(=O)N[C@@H](Cc3ccc4ccccc4c3)C(=O)NCCCC[C@H](NC(=O)N[C@@H](CCC(=O)O)C(=O)O)C(=O)O)CC2)cc1` (stereo partly shown) [^177Lu-Ibu-sPSMA, metal not drawn], the “uptake in PC-3 flu tumor cells” value [1] is reported as under 0.1%, the internalized fraction ([2]; 2 h incubation) is reported as 18% and the internalized fraction ([2]; 4 h incubation) is reported as 22%. It also gave a Blood ([3]; 1 h p.i.) of 29±4 % IA/g, a Bone ([3]; 1 h p.i.) of 3.3 ± 0.4 % IA/g and a Heart ([3]; 1 h p.i.) of 9.3 ± 1.5 % IA/g. The Intestines ([3]; 1 h p.i.) was 2.9 ± 0.3 % IA/g, the Kidneys ([3]; 1 h p.i.) was 114±15 % IA/g and the Liver ([3]; 1 h p.i.) was 17±4 % IA/g. For the same molecule, the Lung ([3]; 1 h p.i.) was 17 ± 3 % IA/g, the Muscle ([3]; 1 h p.i.) was 3.1 ± 0.7 % IA/g and the Salivary glands ([3]; 1 h p.i.) was 6.6 ± 0.5 % IA/g. For the same molecule, the Spleen ([3]; 1 h p.i.) was 5.8 ± 1.2 % IA/g, the Stomach ([3]; 1 h p.i.) was 2.6 ± 0.5 % IA/g and the Tumor-to-blood ([3]; 1 h p.i.) was 2.2 ± 0.1. The Tumor-to-kidney ([3]; 1 h p.i.) was 0.56±0.09, the Tumor-to-liver ([3]; 1 h p.i.) was 3.7 ± 0.5 and the “PC-3 flu Tumor” value ([3]; 1 h p.i.) was 5.1 ± 0.7 % IA/g. The “PC-3 PIP Tumor” value ([3]; 1 h p.i.) was 63±8 % IA/g, the Blood ([3]; 4 h p.i.) was 7.2 ± 0.7 % IA/g and the Bone ([3]; 4 h p.i.) was 1.1 ± 0.2 % IA/g. For the same molecule, the Heart ([3]; 4 h p.i.) was 2.4 ± 0.2 % IA/g, the Intestines ([3]; 4 h p.i.) was 1.1 ± 0.2 % IA/g and the Kidneys ([3]; 4 h p.i.) was 28 ± 2 % IA/g. The Liver ([3]; 4 h p.i.) was 7.2±0.5 % IA/g, the Lung ([3]; 4 h p.i.) was 4.9 ± 0.7 % IA/g and the Muscle ([3]; 4 h p.i.) was 0.84 ± 0.14 % IA/g. For the same molecule, the Salivary glands ([3]; 4 h p.i.) was 1.9 ± 0.2 % IA/g, the Spleen ([3]; 4 h p.i.) was 2.1 ± 0.3 % IA/g and the Stomach ([3]; 4 h p.i.) was 1.3 ± 0.9 % IA/g. For the same molecule, the Tumor-to-blood ([3]; 4 h p.i.) was 14 ± 3, the Tumor-to-kidney ([3]; 4 h p.i.) was 3.6 ± 0.2 and the Tumor-to-liver ([3]; 4 h p.i.) was 14 ± 2. The “PC-3 flu Tumor” value ([3]; 4 h p.i.) was 2.0 ± 0.3 % IA/g, the “PC-3 PIP Tumor” value ([3]; 4 h p.i.) was 99 ± 7 % IA/g and the Blood ([3]; 24 h p.i.) was 0.76 ± 0.07 % IA/g. It also gave a Bone ([3]; 24 h p.i.) of 0.27 ± 0.04 % IA/g, a Heart ([3]; 24 h p.i.) of 0.39 ± 0.04 % IA/g and an Intestines ([3]; 24 h p.i.) of 0.31 ± 0.07 % IA/g. It also gave a Kidneys ([3]; 24 h p.i.) of 10 ± 2 % IA/g, a Liver ([3]; 24 h p.i.) of 0.81 ± 0.09 % IA/g and a Lung ([3]; 24 h p.i.) of 0.79 ± 0.07 % IA/g. For the same molecule, the Muscle ([3]; 24 h p.i.) was 0.14 ± 0.02 % IA/g, the Salivary glands ([3]; 24 h p.i.) was 0.37 ± 0.05 % IA/g and the Spleen ([3]; 24 h p.i.) was 0.72 ± 0.15 % IA/g. For the same molecule, the Stomach ([3]; 24 h p.i.) was 0.50 ± 0.19 % IA/g, the Tumor-to-blood ([3]; 24 h p.i.) was 173 ± 18 and the Tumor-to-kidney ([3]; 24 h p.i.) was 13 ± 2. The Tumor-to-liver ([3]; 24 h p.i.) was 163 ± 16, the “PC-3 flu Tumor” value ([3]; 24 h p.i.) was 0.66 ± 0.07 % IA/g and the “PC-3 PIP Tumor” value ([3]; 24 h p.i.) was 132±15 % IA/g. It also gave a Blood ([3]; 96 h p.i.) of 0.27 ± 0.02 % IA/g, a Bone ([3]; 96 h p.i.) of 0.08 ± 0.01 % IA/g and a Heart ([3]; 96 h p.i.) of 0.12 ± 0.01 % IA/g. The Intestines ([3]; 96 h p.i.) was 0.13 ± 0.03 % IA/g, the Kidneys ([3]; 96 h p.i.) was 2.3 ± 0.3 % IA/g and the Liver ([3]; 96 h p.i.) was 0.22 ± 0.02 % IA/g. The Lung ([3]; 96 h p.i.) was 0.25 ± 0.03 % IA/g, the Muscle ([3]; 96 h p.i.) was 0.04 ± 0.02 % IA/g and the Salivary glands ([3]; 96 h p.i.) was 0.11 ± 0.02 % IA/g. For the same molecule, the Spleen ([3]; 96 h p.i.) was 0.22 ± 0.03 % IA/g, the Stomach ([3]; 96 h p.i.) was 0.73 ± 0.82 % IA/g and the Tumor-to-blood ([3]; 96 h p.i.) was 210 ± 35. The Tumor-to-kidney ([3]; 96 h p.i.) was 25 ± 2, the Tumor-to-liver ([3]; 96 h p.i.) was 263 ± 42 and the “PC-3 flu Tumor” value ([3]; 96 h p.i.) was 0.15 ± 0.02 % IA/g. For the same molecule, the “PC-3 PIP Tumor” value ([3]; 96 h p.i.) was 57±9 % IA/g.
